Source: patent US8183230B2, “Antimicrobial preservatives to achieve multi-dose formulation using beta-cyclodextrins for liquid dosage forms” (priority 2004, dated 2012)

Key:
[1] = Solubility analysis (solubility method) for binding constant with SBE-CD; conditions: for K11 (equilibrium): meta-cresol saturated solubility in varying SBE-CD; for Slope / y-intercept: meta-cresol solubility vs. SBE-CD concentration
Method: Traditional solubility methods were performed initially to determine the solubility and binding constants of compound of Formula Ia and preservative with SBE-CD.
Binding was calculated for meta-cresol using solubility analysis. The experiment was performed at different concentrations of compound of Formula Ia to determine if there was any effect from the presence of drug in solution on the meta-cresol binding constant. Meta-cresol solubility was measured in excess (saturated) meta-cresol and the equilibrium binding constant was calculated using the following equation:
[formula] Where St is the total solubility of meta-cresol, s0 is the inherent solubility of meta-cresol, Lt is the total concentration of SBE-CD (ligand) and K11 is the equilibrium binding constant of meta-cresol assuming a 1 to 1 binding stoichiometry.

[2] = Equilibrium dialysis method for determining binding constants; conditions: for Keq / k: binary, SBE-CD 1.0 mM
Text: In the present invention, the method to determine binding constants utilizes equilibrium dialysis in the development of a multi-use parenteral formulation containing SBE-CD and a preservative. In particular, the method was applied in developing a parenteral formulation comprising the compound of Formula Ia, a cyclodextrin (SBE-CD) and a preservative (meta-cresol). This approach is applicable to compounds other than the compound of Formula Ia in developing parenteral formulations and is within the scope of this invention. […] The significance of this procedure is its ability to measure the binding constant of multiple compounds competing for binding with the cyclodextrin. The experimental dialysis data also provides an easily interpreted representation of binding in the formulation by visualizing the degree of interaction by the equilibrium established following dialysis.
Equilibrium dialysis permits calculation of binding constants by modeling the resultant diffusion rate across a semi-permeable membrane with an equilibrium end point. Equilibrium dialysis is performed by allowing the substrate in a solution containing bound substrate and ligand in a donor compartment of an equilibrium dialysis apparatus (cell) to equilibrate over time with an acceptor compartment. Ono, N., Hirayama, F., Arima, H., Uekama, K. “Determination of Stability Constant of β-Cyclodextrin Complexes Using the Membrane Permeation Technique and the Permeation Behavior of Drug Competing Agent-β-Cyclodextrin Ternary Systems” Eur. J. Pharm. Sci. 1999 9:133-139. The acceptor cell contains no ligand. The membrane is semi-permeable allowing the typically low molecular weight substrates to freely diffuse, while the cyclodextrin (MW=2163) remains in the donor compartment. Sampling from both compartments over time yields a time-concentration profile of substrate in both the donor and acceptor compartments of the dialysis cell.
A mathematical model describing the diffusion rate of drug across the membrane can be derived for systems containing two or more components in solution. The dialysis rate and binding constant for the substrates are obtained by resolving the equation using nonlinear curve fitting software. Depending on the interactions between the components it is possible to describe the competitive binding that occurs in the solution. The equilibrium binding constant is a measure of the relative concentration of meta-cresol bound to SBE-CD according to the chemical equilibrium equation below: S=meta-cresol, L=SBE-CD. S:L indicates the complex formed between meta-cresol and SBE-CD.
The initial experiments established the equilibrium dialysis flux rates for compound of Formula Ia and meta-cresol across the 500 MWCO dialysis membrane. Three different concentrations of compound of Formula Ia were initially loaded into the donor side of the dialysis well. Samples were withdrawn at various time intervals and concentration of free component was measured using HPLC. […] The smoothed line was a fit to the data using the model for a unitary system presented in the discussion. The equilibrium point for all these control experiments was reached after 50% of the total drug was distributed uniformly across the donor and acceptor sides of the well. This asymptotic approach to equilibrium was modeled and the dialysis rates were calculated, Table II.
The primary method of analyzing the data was to perform calculations from equilibrium dialysis data, as described below. In particular, the rate of diffusion across the membrane was calculated using the following equations:
The rate of diffusion from the donor phase is defined by the following relationship: [D]t−[D]eq=([D]0−[D]eq)e^(−2kt) (1)
Rate of diffusion into the Acceptor Phase: [D]eq−[D]t=[D]eqe^(−2kt) (2) wherein
The basis of calculation in the presence of SBE-CD is to assume that complexation occurs only in the donor phase according to the standard complexation reaction:
The value for CyDF may be substituted into equation 8. […]

[3] = Stability measurements (accelerated stability)
Method: Stability Measurements. Potential lead formulations were evaluated under various accelerated stability conditions in order to assess potency and purity of compound of Formula Ia, preservative content and SBE-CD content. For example, in one accelerated stability study, potential lead formulations were placed in stability ovens to measure short-term thermal stability. […] Purity and potency assays to measure compound of Formula Ia, as well as antimicrobial preservatives and SBE-CD content, were performed using validated HPLC methodology. SBE-CD was assayed using GTP 5984.

[4] = Calculated non-sequestered concentrations in formulations
Text: These constants were used to calculate the concentration of non-sequestered meta-cresol in the formulations tested for anti-microbial efficacy.
The appearance of a plateau at the higher concentrations is only due to the limitation in the bactericidal efficacy measurement method. As the method consists in evaluating the population not killed by the preservative, when the whole population is dead (i.e. none is detectable any more ˜100%) the figure quoted is of the form: a log reduction greater than a value usually between 3 and 5.
The formulations were analyzed for preservative effectiveness.

[5] = Compound of Formula Ia 00.00 mM
[6] = Compound of Formula Ia 10.67 mM
[7] = Compound of Formula Ia 21.34 mM
[8] = Compound of Formula Ia 42.67 mM
[9] = approximate ratio 1:1, Meta-cresol 1.1 mM
[10] = approximate ratio 1:2, Meta-cresol 0.6 mM
[11] = approximate ratio 1:4, Meta-cresol 0.3 mM

Compound: Cc1cccc(O)c1 [meta-cresol]
- Average Binding Constant ([1]; average over Compound of Formula Ia 00.00 to 42.67 mM): 27.59 M⁻¹
- K11 (equilibrium) [1, 5]: 24.53 M⁻¹
- K11 (equilibrium) [1, 6]: 25.78 M⁻¹
- K11 (equilibrium) [1, 7]: 35.46 M⁻¹
- K11 (equilibrium) [1, 8]: 24.59 M⁻¹
- Slope [1, 5]: 0.46
- y-intercept [1, 5]: 34.06 mM
- Slope [1, 6]: 0.46
- y-intercept [1, 6]: 33.15 mM
- Slope [1, 7]: 0.53
- y-intercept [1, 7]: 32.15 mM
- Slope [1, 8]: 0.43
- y-intercept [1, 8]: 31.15 mM
- equilibrium binding constant, averaged across the studies ([1]; solubility method, SBE-CD): 27.6 M⁻¹
- binding constant with SBE-CD ([1]; solubility method, n=1): 28 M⁻¹
- Keq [2, 9]: 88 M⁻¹
- k [2, 9]: 1.984 h⁻¹
- Keq [2, 10]: 75 M⁻¹
- k [2, 10]: 2.182 h⁻¹
- Keq [2, 11]: 85 M⁻¹
- k [2, 11]: 2.761 h⁻¹
- binding constant with SBE-CD ([2]; equilibrium dialysis method, binary systems, drug ±352 M−1, n=3, preservative ±7 M−1): 83 M⁻¹
- binding of preservative to cyclodextrin in ternary systems ([2]; ternary systems of SBE-CD, drug and preservative at the ratios tested, equilibrium profile): not bound to cyclodextrin
- stability in the formulation (in words) [3]: excellent stability
- CONTENT (% INTENT) ([3]; 5° C., 1 week, Amber-Treated, 3 mg/mL meta-cresol, 100 mg/mL SBE-CD, 10 mgA/mL compound of Formula Ia): 102 % INTENT
- CONTENT (% INTENT) ([3]; 5° C., 1 week, Amber-Untreated, 3 mg/mL meta-cresol, 100 mg/mL SBE-CD, 10 mgA/mL compound of Formula Ia): 102 % INTENT
- CONTENT (% INTENT) ([3]; 5° C., 3 weeks, Amber-Treated, 3 mg/mL meta-cresol, 100 mg/mL SBE-CD, 10 mgA/mL compound of Formula Ia): 104 % INTENT
- CONTENT (% INTENT) ([3]; 5° C., 3 weeks, Amber-Untreated, 3 mg/mL meta-cresol, 100 mg/mL SBE-CD, 10 mgA/mL compound of Formula Ia): 103 % INTENT
- CONTENT (% INTENT) ([3]; 5° C., 6 weeks, Amber-Treated, 3 mg/mL meta-cresol, 100 mg/mL SBE-CD, 10 mgA/mL compound of Formula Ia): 104 % INTENT
- CONTENT (% INTENT) ([3]; 5° C., 6 weeks, Amber-Untreated, 3 mg/mL meta-cresol, 100 mg/mL SBE-CD, 10 mgA/mL compound of Formula Ia): 102 % INTENT
- CONTENT (% INTENT) ([3]; 5° C., 12 weeks, Amber-Treated, 3 mg/mL meta-cresol, 100 mg/mL SBE-CD, 10 mgA/mL compound of Formula Ia): 98 % INTENT
- CONTENT (% INTENT) ([3]; 5° C., 12 weeks, Amber-Untreated, 3 mg/mL meta-cresol, 100 mg/mL SBE-CD, 10 mgA/mL compound of Formula Ia): 98 % INTENT
- CONTENT (% INTENT) ([3]; 50° C., 1 week, Amber-Treated, 3 mg/mL meta-cresol, 100 mg/mL SBE-CD, 10 mgA/mL compound of Formula Ia): 99 % INTENT
- CONTENT (% INTENT) ([3]; 50° C., 1 week, Amber-Untreated, 3 mg/mL meta-cresol, 100 mg/mL SBE-CD, 10 mgA/mL compound of Formula Ia): 100 % INTENT
- CONTENT (% INTENT) ([3]; 50° C., 3 weeks, Amber-Treated, 3 mg/mL meta-cresol, 100 mg/mL SBE-CD, 10 mgA/mL compound of Formula Ia): 103 % INTENT
- CONTENT (% INTENT) ([3]; 50° C., 3 weeks, Amber-Untreated, 3 mg/mL meta-cresol, 100 mg/mL SBE-CD, 10 mgA/mL compound of Formula Ia): 101 % INTENT
- CONTENT (% INTENT) ([3]; 50° C., 6 weeks, Amber-Treated, 3 mg/mL meta-cresol, 100 mg/mL SBE-CD, 10 mgA/mL compound of Formula Ia): 104 % INTENT
- CONTENT (% INTENT) ([3]; 50° C., 6 weeks, Amber-Untreated, 3 mg/mL meta-cresol, 100 mg/mL SBE-CD, 10 mgA/mL compound of Formula Ia): 102 % INTENT
- CONTENT (% INTENT) ([3]; 50° C., 12 weeks, Amber-Treated, 3 mg/mL meta-cresol, 100 mg/mL SBE-CD, 10 mgA/mL compound of Formula Ia): 100 % INTENT
- CONTENT (% INTENT) ([3]; 70° C., 1 week, Amber-Treated, 3 mg/mL meta-cresol, 100 mg/mL SBE-CD, 10 mgA/mL compound of Formula Ia): 100 % INTENT
- CONTENT (% INTENT) ([3]; 70° C., 1 week, Amber-Untreated, 3 mg/mL meta-cresol, 100 mg/mL SBE-CD, 10 mgA/mL compound of Formula Ia): 100 % INTENT
- CONTENT (% INTENT) ([3]; 70° C., 2 weeks, Amber-Treated, 3 mg/mL meta-cresol, 100 mg/mL SBE-CD, 10 mgA/mL compound of Formula Ia): 103 % INTENT
- CONTENT (% INTENT) ([3]; 70° C., 2 weeks, Amber-Untreated, 3 mg/mL meta-cresol, 100 mg/mL SBE-CD, 10 mgA/mL compound of Formula Ia): 103 % INTENT
- CONTENT (% INTENT) ([3]; 70° C., 3 weeks, Amber-Treated, 3 mg/mL meta-cresol, 100 mg/mL SBE-CD, 10 mgA/mL compound of Formula Ia): 100 % INTENT
- CONTENT (% INTENT) ([3]; 70° C., 3 weeks, Amber-Untreated, 3 mg/mL meta-cresol, 100 mg/mL SBE-CD, 10 mgA/mL compound of Formula Ia): 102 % INTENT
- CONTENT (% INTENT) ([3]; 70° C., 6 weeks, Amber-Treated, 3 mg/mL meta-cresol, 100 mg/mL SBE-CD, 10 mgA/mL compound of Formula Ia): 101 % INTENT
- CONTENT (% INTENT) ([3]; 70° C., 6 weeks, Amber-Untreated, 3 mg/mL meta-cresol, 100 mg/mL SBE-CD, 10 mgA/mL compound of Formula Ia): 101 % INTENT
- CONTENT (% INTENT) ([3]; 70° C., 12 weeks, Amber-Treated, 3 mg/mL meta-cresol, 100 mg/mL SBE-CD, 10 mgA/mL compound of Formula Ia): 100 % INTENT
- CONTENT (% INTENT) ([3]; 70° C., 12 weeks, Amber-Untreated, 3 mg/mL meta-cresol, 100 mg/mL SBE-CD, 10 mgA/mL compound of Formula Ia): 100 % INTENT
- CONTENT (% INTENT) ([3]; ICH Photostability, 1X ICH UV/FI, Amber-Treated, 3 mg/mL meta-cresol, 100 mg/mL SBE-CD, 10 mgA/mL compound of Formula Ia): 102 % INTENT
- CONTENT (% INTENT) ([3]; ICH Photostability, 1X ICH UV/FI, Amber-Untreated, 3 mg/mL meta-cresol, 100 mg/mL SBE-CD, 10 mgA/mL compound of Formula Ia): 102 % INTENT
- loss / potency decrease ([3]; after 12 weeks at 70° C., relative to 1 week at 5° C., 3 mg/mL meta-cresol, 100 mg/mL SBE-CD, 10 mgA/mL compound of Formula Ia): 2%
- ACCEPTABLE STABILITY ([3]; pH 4.4, 10% SBE-CD, 10 mgA/mL compound of Formula Ia): ✓
- minimum concentration of non sequestered preservative ([4]; for preservative effectiveness in drug/cyclodextrin/preservative formulations): 2.1 mg/mL
- calculated non-sequestered concentration ([4]; preferred formulation: 10 mgA/mL compound, 63 mg/mL SBE-CD, 3.3 mg/mL meta-cresol, pH 4.4): 2.8 mg/mL
